Measured values published in patent US5756511A, “Method for treating symptoms of a neurodegenerative condition” (Cell Therapeutics, Inc., priority 1995, dated 1998).

Legend:
endogenous APP = assay: Western Blot of endogenous APP in culture supernatants of SH-SY5Y cells; type: cell-based; conditions: SH-SY5Y incubated 18 hours with 5 nM human TNFA and increasing concentrations of compound
Procedure: This Example illustrates the effect of representative compounds nos. 2576, 2583, 3501, 3577, 4522, 4533, 4535 and 4537 used in the inventive method on endogenous APP expression.
Cell cultures were prepared as in Example 1 using SH-SY5Y human neuroblastoma cells. Culture supernatants from SH-SY5Y cells incubated for 18 hours with 5 nM human TNFA and increasing concentrations of representative compounds identified above were separated on a 4-20% SDS-polyacrylamide gel and transferred to nitrocellulose. The nitrocellulose filter was probed with anti-APP antibody (Boehringer Mannheim, Indpls, Ind.), and the results visualized by Enhanced Chemiluminecence (Amersham Life Sciences, Arlington Heights, Ill.).

[1] = tested on: human amyloid precursor protein (APP) promoter; assay: APP promoter-alkaline phosphatase (pHAPPro. 1) reporter assay in transfected SH-SY5Y cells stimulated with hTNFα; type: cell-based; conditions: SH-SY5Y transfected with pHAPPro. 1; 1 nM hTNFα; increasing concentrations of agent
Procedure: This example is an in vitro assay confirming activity of an ability of representative agents to inhibit APP synthesis by effecting the level of alkaline phosphatase in the culture medium of human neuroblastoma cells, SH-SY5Y (Beidler et al., 1978), expression of which is controlled by a human amyloid precursor protein (APP) promoter.
The SH-SY5Y were transfected with the promoter-alkaline phosphatase reporter gene construct pHAPPro. The transfected cells were prepared as follows:
A DNA fragment comprising nucleotide pairs -660 to +20 of the human APP promoter (Salbaum et al. 1988) was isolate by polymerase chain reaction using human placental DNA as a template. Xba I and ASP718 restriction endonuclease recognition sites were incorporated during amplification to facilitate subcloning upstream of an alkaline phosphatase reporter gene, forming the plasmid pHAPPro. 1, represented in FIG. 1. SH-SY5Y were subsequently transfected with pHAPPro. 1.
Comparing results obtained in this assay to a standard based on alkaline phosphatase expression controlled by a human phosphoglycerol kinase (PGK) promoter, relative to any cytotoxic effects an agent confirms therapeutic efficacy in the inventive method.
In all assays, controls were done in triplicate. Control assays specifically included assays using: 1) unstimulated cells; 2) cells stimulated with 1 nM hTNFαalone; 3) cells stimulated with 1 nM hTNFα and increasing concentrations of agent, as tested for all representative agents; 4) cells stimulated with 1 nM hTNFα and increasing concentrations of vehicle (100% ethanol), corresponding to vehicle concentrations in test agent preparations.
Subsequent validation of all results included repeating tests with an expanded dose range. Results obtained were compared to an agent's inhibition of constituitive promoter for the phosphoglycerol kinase gene and endogenous amyloid precursor protein expression in neuroblastoma cells
SH-SY5Y cells, prepared above, were plated into wells of a 96-well dish at a density of 20,000 cells per well in […] AIM V medium (Gibco/BRL, Gaithersburg, Md.: CAT# 21021-019). Dishes were incubated at 5% CO2 and 37° C. for 12 to 24 hours. […]
Culture medium […] from each well was transferred to a corresponding well of a 96-well ELISA dish and […] 1× SEAP (0.5M diethanolamine (pH 9.8); 0.25 mM MgCl2; 0.01 mM ZnSO4; 10 mM L-homoarginine; 1 mM para-nitrophenyphosphate, Berger et al., 1988.), prepared above, was added to each well. The plates were incubated 10 minutes in 5% CO2 and 37° C., after which the kinetic change in absorbance at 405 nm was measured on a BIOTEK plate reader.
All data were imported into plotting software for analysis. Triplicate data points were averaged and standard error (from mean) was calculated using accepted standards. […]

Structure (SMILES) | inhibition of expression of endogenous APP (FIG. 3) (endogenous APP) | inhibition of APP expression (FIG. 2) [1]
COc1cc(NC(=O)CCCCCCCCCCn2c(=O)c3c(ncn3C)n(C)c2=O)cc(OC)c1OC [Compound 4535] | inhibition of APP expression, in a dose-dependent manner | 
COc1cc(CNC(=O)CCCCCCCCCCn2c(=O)c3c(ncn3C)n(C)c2=O)cc(OC)c1OC [Compound 3577] | inhibition of APP expression, in a dose-dependent manner | inhibit APP expression in a dose-dependent fashion
Cn1cnc2c1c(=O)n(CCCCCCCCCCC(=O)NCc1ccc3c(c1)OCO3)c(=O)n2C [Compound 4533] | inhibition of APP expression, in a dose-dependent manner | 
CCCCCCCCCCNCC(O)CCCCCCCCCn1c(=O)c2c(ncn2C)n(C)c1=O (stereo not drawn) [Compound 2583] | inhibition of APP expression, in a dose-dependent manner | 
CCCCCCCCNCC(O)CCCCCCCCCn1c(=O)c2c(ncn2C)n(C)c1=O (stereo not drawn) [Compound 2576] | inhibition of APP expression, in a dose-dependent manner | 
CCCCCCCCN(CC(CCCCCCCCCn1c(=O)c2c(ncn2C)n(C)c1=O)OC(C)=O)C(C)=O (stereo not drawn) [Compound 4537] | inhibition of APP expression, in a dose-dependent manner | inhibit APP expression in a dose-dependent fashion
COc1cc(CNCC(O)CCCCCCCCCn2c(=O)c3c(ncn3C)n(C)c2=O)cc(OC)c1OC (stereo not drawn) [Compound 3501] | inhibition of APP expression, in a dose-dependent manner | inhibit APP expression in a dose-dependent fashion
COc1cc(CNC(CO)CCCCCCCCCn2c(=O)c3c(ncn3C)n(C)c2=O)cc(OC)c1OC (stereo not drawn) [Compound 4522] | inhibition of APP expression, in a dose-dependent manner | inhibit APP expression in a dose-dependent fashion
